Legend:
COL1A1 expression = test: Precision cut lung slices from human IPF explants, COL1A1 expression; type: cell-based; conditions: for COL1A1 expression, treatment alone: PCLS from 5-7 IPF samples, seven days, nintedanib 75 nM, pirfenidone 50 μm
Excerpt: Explanted lung tissue was obtained from human IPF subjects and inflated with agarose as described in the preceding examples. Biopsy cores were obtained from the agarose-inflated lung tissue. The biopsy cores were subjected to precision slicing to obtain several hundred μm thick. Individual slices were distributed in a multiwell culture plate and cultured for […] under control (DMSO) and test compound conditions. The viability of the slices over the course of culturing was confirmed by WST-1 assay of mitochondrial activity.
PCLS from 5-7 idopathic pulmonary fibrosis (IPF) lung tissue samples were cultured for seven days with one of: DMSO; Compound 5 at 200 nM; nintedanib at 75 nM; pirfenidone at 50 μm; a combination of Compound 5 at 200 nM and nintedanib at 75 nM; a combination of Compound 5 at 200 nM and pirfenidone at 50 μm; or an Alk5 inhibitor at 1 μm. […] FIG. 4D is a bar graph showing relative expression of COL1A1 in precision cut lung slices (PCLS) from idopathic pulmonary fibrosis (IPF) lung tissue upon exposure to Compound 5, clinical standard of care compounds nintedanib (Nin) and pirfenidone (Pirf), and an ALK5 inhibitor, all versus DMSO control.
PCLS from a single IPF lung tissue sample were cultured for seven days with Compound 5 at concentrations of 200 μM, 2 nM, 60 nM, 200 nM, and 1 μM, along with 0.1% DMSO control and an Alk5 inhibitor at 1 μM. […] COL1A1 expression is also graphed for the PCLS in the presence of 0.1% DMSO control, and an Alk5 inhibitor at 1 μM.

[1] = test system: Type I Collagen gene Col1a1 expression; test: Precision cut lung slices, acute bleomycin exposure, Col1a1 expression; type: cell-based, mice (C57BL/6); conditions: for Type I Collagen gene Col1a1 expression, normalized to DMSO control slices: 3 days culture, integrin inhibitors at IC50 for TGF-beta activation, pan-αV and ALK5 inhibitors at 10× reported IC50, FIG. 3A
Procedure: Mice (C57BL/6) were administered 3 U/kg of bleomycin (Teva Pharmaceuticals; North Wales, PA) on day 0 via oropharyngeal aspiration while under anesthesia. On day 14, precision cut lung slices were obtained. Following euthanization, 2% low gelling temp agarose was injected into the mouse lungs via the trachea. […] The lobes were then subjected to precision slicing to obtain samples for culture using a microtome (Compresstome VF-300-OZ, Precisionary; Greenville, NC). Individual slices were distributed in a multiwell culture plate and cultured for 3 days under control (DMSO) and test compound conditions.

lung Col1a1 expression = test: Precision cut lung slices, chronic bleomycin exposure, Col1a1 expression; type: cell-based, mice (C57BL/6); conditions: 7 days culture, ALK5 inhibitor at 10× IC50; for lung slice Col1a1 expression compared to DMSO vehicle control slices: nintedanib and pirfenidone at 10× therapeutic concentrations, FIG. 4A
Procedure: (§1) Mice (C57BL/6) were administered 3 U/kg of bleomycin (Teva Pharmaceuticals; North Wales, PA) on Day 0 and 1 U/kg of bleomycin on days 14, 28, 42 and 56 via oropharyngeal aspiration while under anesthesia. At day 70, 14 days after the final bleomycin insult, precision cut lung slices were obtained. Following euthanization, 2% low gelling temp agarose was injected into the mouse lungs via the trachea. […] The lobes were then subjected to precision slicing to obtain samples for culture using a microtome (Compresstome VF-300-OZ, Precisionary; Greenville, NC). Individual slices were distributed in a multiwell culture plate and cultured for 7 days under control (DMSO) and test compound conditions. The viability of the slices over the course of culturing was confirmed by WST-1 assay of mitochondrial activity.
During the culture period, slices in the control group were treated with DMSO and slices in the test group were treated with a DMSO solution of one of: the selective antibody αVβ6 inhibitor 3G9; the αVβ1-selective small molecule inhibitor; a combination of the selective antibody αVβ6 inhibitor 3G9 and the αVβ1-selective small molecule inhibitor; compound 5; and the small molecule ALK5 inhibitor. The selective αVβ1 and αVβ6 integrin inhibitors were analyzed at ≥their respective IC90 concentrations for inhibition of TGF-beta activation. Compound 5 was run at approximate IC50 for inhibition of TGF-beta activation by αVβ6.
as §1, with “following” for “after”
During the culture period, slices in the control group were treated with DMSO and slices in the test group were treated with a DMSO solution of one of: compound 5; nintedanib; pirfenidone; a combination of nintedanib and compound 5; a combination of pirfenidone and compound 5; or the small molecule ALK5 inhibitor. Compound 5 was […] effective to equal or exceed its respective IC50 values at αVβ6 and αVβ1. […] Nintendanib and pirfenidone were analyzed at concentrations 10× their reported therapeutic concentrations.

SMILES	lung Col1a1 expression, normalized to DMSO control slices (COL1A1 expression; human IPF slices, 3 days, 3G9 ≥400 ng/mL, compound 5 179 nM, ALK5 inhibitor 1 μM, FIG. 4C)	Type I Collagen gene Col1a1 expression, normalized to DMSO control slices [1]	lung Col1a1 expression, normalized to DMSO control slices (lung Col1a1 expression; Compound 5 at approximate IC50 (αVβ6), selective inhibitors at ≥IC90, FIG. 3B)	lung slice Col1a1 expression compared to DMSO vehicle control slices (lung Col1a1 expression)	COL1A1 expression, treatment alone (COL1A1 expression)	increase in concentration over compound 5 needed to reduce lung slice Col1a1 expression by 50% ([1]; acute bleomycin injured lung slices, FIG. 4B) [fold]
Cc1cccc(-c2n[nH]cc2-c2ccc(F)c(-c3cnn(CCO)c3)c2)n1 [small molecule ALK5 inhibitor, 4-[2-Fluoro-5-[3-(6-methyl-2-pyridinyl)-1H-pyrazol-4-yl]phenyl]-1H-pyrazole-1-ethanol]	substantial, statistically significant	greatest decrease	greatest decrease	substantial, statistically significant (p<0.0001 vs vehicle) decrease		
Cc1ccc(=O)n(-c2ccccc2)c1 [pirfenidone]				slight increase	did not significantly reduce	
CC(C)(C)c1cc(Br)cc([C@H](CC(=O)O)NC(=O)CNC(=O)c2cc(O)cc(NC3=NCC(O)CN3)c2)c1 (stereo partly drawn) [second pan-αV small molecule inhibitor, (3S)—N-[3-hydroxy-5-[(1,4,5,6-tetrahydro-5-hydroxy-2-pyrimidinyl)amino]benzoyl]glycyl-3-[3-bromo-5-(1,1-dimethylethyl)phenyl]-β-alanine]		decreased Type I Collagen gene Col1a1 expression comparably				
COC(=O)c1ccc2c(c1)NC(=O)/C2=C(\Nc1ccc(N(C)C(=O)CN2CCN(C)CC2)cc1)c1ccccc1 [nintedanib]				slight increase	did not significantly reduce	5.2

Reference: US20240350494A1, “THERAPEUTIC MODULATION OF INTEGRINS” (Pliant Therapeutics, Inc., priority 2021, published 2024)
